From patent US20220143210A1, “HYDROGEL COMPOSITIONS AND METHODS FOR TREATEMENT OF MALIGNANCIES” (Fred Hutchinson Cancer Research Center, priority 2019, published 2022)
“Also recorded” adds a separate entry of the source.

B1: IFNg: M1-polarizing agent (protein, UniProt P01579 24-161, looked up)
Interferon gamma: QDPYVKEAENLKKYFNAGHSDVADNGTLFLGILKNWKEESDRKIMQSQIVSFYFKLFKNFKDDQSIQKSVETIKEDMNVKFFNSNKKKRDDFEKLTNYSVTDLNVQRKAIHELIQVMAELSPAAKTGKRKRSQMLFRG

Experiments:
[1] = system: GFP+ PDX brain tumor cells (HGG); experiment: In vitro chemotaxis (transwell, Incucyte) assay; assay type: cell-based, human; conditions: for chemotaxis / migration of PDX brain tumor cells: chemokine gradient, transwell
Protocol: Cell migration assays were performed using the Chemotaxis software on Essen Bio's Incucyte Zoom 2016 and S3. Specialized 96 well transwell plates were supplied by Essen Bio. GFP+ PDX cells were cultured in the aforementioned Neuralcult media without EGF/FGF supplementation. The Incucyte software definitions were trained to identify GFP+ rounded objects spanning the range of healthy nuclei found in my cultures.
It has been hypothesized that it is possible to exploit the migratory behavior of high grade brain tumors by employing chemokine gradients to attract them out of inoperable locations and into a location within the brain that maximizes their exposure to opsonin and macrophages. […] Flow analysis confirms the expression of the requisite chemokine receptors on the HGG line used in our chemotaxis assay, as shown in FIGS. 2A-2C.

[2] = system: GFP+ HGG cells in a 1:1 co-culture with murine macrophages; assay type: cell-based, human PDX tumor cells, murine macrophages (C57/B6 mouse); conditions: single agent; macrophage species not specified
Protocol: All chemokines were purchased from Sigma-Aldrich. LEAF hCD47 mAb was purchased from eBioscience (cat number, B6H12 clone). Primary murine macrophages were derived from bone marrow of a C57/B6 mouse. Bone marrow derived mononuclear progenitors were cultured in RPMI with CSF-1 for 3 days before freezing/use in assays. Patient-derived xenograft (PDX) were obtained from autopsy or biopsy. PDX lines were cultured in Neuralcult Serum Free (Stem cell tech) with Neuralcult supplement (cat no), 100 U ml-1 PenStrep, Glutamax, EGF and FGF. Cells were grown adherent on tissue-culture treated plates after at least 2 hours of Laminin coating (Sigma-aldrich) in an incubator at 37° C. in 5% CO2. All PDX lines were transduced with H2b-GFP and Luciferase to assist in cell counting and tumor size visualization via IVIS. Xenograft tumors were established in the cortex of female athymic mice nu/nu (Harlan) mice. Tumors were allowed to grow to an IVIS threshold before study enrollment. All mouse studies were carried out following protocols approved by the IACUC at FHCRC (protocol 1457) and complied with all relevant ethical regulations.
Phagocytosis assays were performed using the Basic Analyzer software on Essen Bio's Incucyte Zoom 2016 and S3. […] Using the aforementioned definitions, the Incucyte calculated the reduction of GFP+ nuclei in the wells over time in response to those factors. […]

[3] = administered intravenously, clinically; cited from earlier work

| Molecule | chemotaxis / migration of PDX brain tumor cells [1] | effects on the tumor cells in co-culture [2] | also measured |
| --- | --- | --- | --- |
| CCL2: classical immune cell chemokine, purchased from Sigma-Aldrich | induced varying degrees of chemotaxis; also recorded: effective at eliciting chemotaxis; also recorded: effective at eliciting migration | – | relative chemotactic potency across PDX lines ([1]; across all lines tested): most potency across all lines tested |
| CXCL12: classical immune cell chemokine, purchased from Sigma-Aldrich | induced varying degrees of chemotaxis; also recorded: effective at eliciting migration | – | – |
| CCOCc1nc2c(N)nc3ccccc3c2n1CC(C)(C)O [R848, reference compound] | – | mild effects | – |
| IFNg: M1-polarizing agent | – | mild effects | – |
| CXCL8: classical immune cell chemokine, purchased from Sigma-Aldrich | induced varying degrees of chemotaxis; also recorded: effective at eliciting migration | – | – |
| B1 | – | – | systemic toxicity [3]: dramatic systemic toxicity |
